Assay results reported in patent US8697662B2, “Methods for treating Kaposi sarcoma” (PTC Therapeutics, Inc., priority 2009, dated 2014).
Marks after values point to notes of the source that are not given here.

Legend:
HT1080 cells = assay: Anchorage-independent colony formation of HT1080 cells in agar; format: cell-based, human; conditions: 10 and 50 nM, day 18; not statistically significant
Protocol: Experimental Design. HT1080 cells growing in monolayer were trypsinized, counted and suspended in a 0.35% agar noble/1× complete DMEM solution at 37° C. at a concentration of 2,500 cells/mL. One ml of this solution was layered over a semisolid base consisting of 0.5 mL of 0.75% agar noble/1× complete DMEM in a six well tissue culture plate. […] Tissue culture plates were then returned to the incubator and colonies were allowed to form. […] On day 18 the vehicle-treated wells had colonies of sufficient size to count (>50 cells/colony). At this time, for increased visualization, 1.5 mL of a 2× working volume of (3-(4,5-Dimethylthiazol-2-yl)-2,5-diphenyltetrazolium bromide, a tetrazole) (MTT, Invitrogen, Cat #C35007) was added and the plates were returned to the incubator for 2 hours until colonies were stained by conversion of the MTT to purple formazan crystals. Colonies were then visually counted under a dissecting microscope.

[1] = tested on: bacterial reverse mutation; assay: Bacterial reverse mutation study; conditions: with and without exogenous metabolic activation
Protocol: Genotoxicity was assessed in a battery of in vitro and in vivo studies that included a bacterial reverse mutation study, a chromosome aberration study in Chinese hamster ovary (CHO) cells, and a micronucleus study in rats by the oral route. The in vitro studies were performed in the presence and absence of an exogenous metabolic activation system.

[2] = 28-day oral toxicity study in dogs with 15-day recovery
Protocol: The L23 vehicle was used. […] All studies in the toxicology program were conducted according to GLP regulations.

[3] = Oral pharmacokinetics / toxicokinetics in rats; format: in vivo, Sprague Dawley rats
Protocol: (§1) The pharmacokinetic evaluations in mice were adjuncts to the primary pharmacodynamic xenograft studies. The evaluations in rats included toxicokinetic assessments in single-dose, 7-day, and 28-day toxicology studies as well as a mass-balance study after a single oral dose of ^14C-Compound #10. The evaluations in dogs included toxicokinetic assessments in 7-day and 28-day toxicology studies. In the studies performed, rodents were dosed once daily with Compound #10 formulated in vehicle and administered via oral gavage.

Kaposi Sarcoma lesions = assay: Patients with Kaposi Sarcoma: cutaneous lesion size and quantity; format: in vivo, human
Protocol: Subjects with HIV-associated KS may receive continuous daily treatment with a Compound being administered BID for up to 48 weeks. […] Response rate of HIV-associated KS to a Compound is an indicator of efficacy.
Compound Administration: Subjects may be administered a Compound at the following dose levels: 40 mg/dose BID, 80 mg/dose BID, and 100 mg/dose BID. A Compound may be orally administered each day on a BID schedule at approximately the same times each day. Ideally, doses should be taken at ˜12-hour intervals (e.g., at ˜7:00 AM and at ˜7:00 PM). If convenient for the subject, the drug may be taken during or within ˜30 minutes after a meal; however, administration with food is not required. Subjects may continue receiving repeated 4-week cycles of a Compound indefinitely or until termination. Compound administration may be terminated because of, e.g., tumor progression or other progression of KS, or a dose-limiting toxicity.
A medical history should be done within 21 days of administration of a Compound and may be done during the treatment course with a Compound (e.g., the first day of every 4 week cycle) and following such treatment. The medical history may include the following information: • 1. Previous HIV-related and non-HIV related diagnoses. • 2. […] For subjects with <50 total skin and oral lesions, all lesions should be evaluated for changes in number and characteristics. […]

[4] = Oral toxicokinetics in dogs; format: in vivo, beagle dogs
Protocol: as §1

LNCaP xenografts = assay: Tumor growth inhibition in LNCaP prostate cancer xenografts; format: in vivo, athymic nude mice
Protocol: Experimental Design. The LNCaP cell line is derived from a lymph node metastasis.
Tumor size was measured by calipers at periodic intervals during the study. When the mean tumor size in a mouse exceeded 1500 mm^3, mice in that group were sacrificed and both tumor and plasma were assayed for pathologic VEGF concentration as described in Section 9.1.1.1.

CYPC19 = molecular target: T1, CYPC19 (Homo sapiens, UniProt P33261); assay: CYP inhibition in human hepatic microsomes or recombinant isoenzymes: CYPC19; format: in vitro ADME
T1 construct: host or cells: human hepatic microsomes or human recombinant isoenzymes
Excerpt: It is possible that in certain clinical trial subjects, such agents may need to be adjusted for dosing or replaced by alternative agents that are not metabolized by CYP2D6, particularly when such agents may have a low therapeutic index.

T1 sequence (P33261 whole entry): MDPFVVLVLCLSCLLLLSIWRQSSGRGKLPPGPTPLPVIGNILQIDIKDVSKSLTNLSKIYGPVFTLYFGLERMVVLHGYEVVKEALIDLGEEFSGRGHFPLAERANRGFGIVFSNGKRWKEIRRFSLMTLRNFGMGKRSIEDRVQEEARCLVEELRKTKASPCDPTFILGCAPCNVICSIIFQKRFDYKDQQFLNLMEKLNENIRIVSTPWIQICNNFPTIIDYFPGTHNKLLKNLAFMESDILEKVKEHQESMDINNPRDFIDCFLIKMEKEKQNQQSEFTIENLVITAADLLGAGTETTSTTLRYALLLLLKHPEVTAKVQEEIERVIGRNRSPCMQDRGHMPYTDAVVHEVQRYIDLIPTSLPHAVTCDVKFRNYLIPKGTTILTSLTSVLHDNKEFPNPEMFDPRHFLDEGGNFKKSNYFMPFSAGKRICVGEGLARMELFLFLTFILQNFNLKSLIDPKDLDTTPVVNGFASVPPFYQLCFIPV

COc1ccc(C2c3[nH]c4ccc(Cl)cc4c3CCN2C(=O)Oc2ccc(Cl)cc2)cc1 (racemic) [Compound #10]
number of colonies formed (in words) (HT1080 cells): modest trend toward a reduced number of colonies | genotoxic effects [1]: no evidence of genotoxic effects | dose at which maximal exposures occurred ([2]; dogs, 5, 15, and 30 mg/kg/dose BID, 28 days): 30 mg/kg/dose BID | clinical tolerability ([2]; dogs, low- and mid-dose levels (5, 15 mg/kg/dose BID), 28 days): clinically well tolerated | NOAEL for 28-days ([2]; dogs, oral capsules): 15 mg/kg/dose BID | oral bioavailability (in words) [3]: orally bioavailable | relationship between dose and plasma exposure (in words) ([3]; oral): bell-shaped curve | lesion size (in words) (Kaposi Sarcoma lesions; patients with Kaposi Sarcoma (FIG. 34)): reduced | reduction in the number of raised lesions (Kaposi Sarcoma lesions; patients with Kaposi Sarcoma labeled PR (FIG. 34)): ≥ 50% | oral bioavailability (in words) [4]: orally bioavailable | relationship between dose and plasma exposure (in words) ([4]; oral): bell-shaped curve | time to tumor progression (time to reach ≧1000 mm^3) (in words) (LNCaP xenografts; 10 mg/kg M-W-F): prolonged | intratumoral VEGF concentrations adjusted for tumor size (in words) (LNCaP xenografts; 10 mg/kg M-W-F, day of sacrifice): reduced | Mean % Inhibition of Intratumoral VEGF vs Vehicle at Sacrifice (LNCaP xenografts; LNCaP xenografts in male nude mice, 10 mg/kg oral M-W-F, adjusted for tumor size): 51^d % | inhibition of CYPC19 (in words) (CYPC19): No meaningful inhibition
